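Assay format: 96-well plates, 48-hour exposure. GI50 = concentration required for 50% inhibition of growth.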 The source made the active and inactive calls. Cut-off read from the data, not from the text of the source: active = GI50 up to about 1.1 µM and inactive = higher.
Columns and labels:
Assay in all cases: DTP human tumour cell line panel, 48 h
[1] = test system: SK-MEL-28
[2] = test system: EKVX
[3] = test system: PC-3
[4] = test system: SF-268
[5] = test system: UACC-257
[6] = test system: RXF 393
[7] = test system: NCI-H460
[8] = test system: A549
[9] = test system: A498
[10] = test system: K562
[11] = test system: OVCAR-3
[12] = test system: NCI-H23
[13] = test system: MDA-MB-231
[14] = test system: Hs-578T
[15] = test system: OVCAR-8
[16] = test system: HT-29
[17] = test system: SK-MEL-5
[18] = test system: SK-OV-3
[19] = test system: MOLT-4
[20] = test system: UACC-62
[21] = test system: SNB-19
[22] = test system: NCI/ADR-RES
[23] = test system: CCRF-CEM
[24] = test system: NCI-H226
[25] = test system: TK-10
[26] = test system: BT-549
[27] = test system: SF-295
[28] = test system: MDA-MB-435
[29] = test system: COLO 205
[30] = test system: T47D
[31] = test system: IGROV-1
[32] = test system: SR
[33] = test system: HCT-15
[34] = test system: SW-620
[35] = test system: HOP-92
[36] = test system: HL-60
[37] = test system: KM12
[38] = test system: U-251
[39] = test system: UO-31
[40] = test system: DU-145
[41] = test system: ACHN
[42] = test system: OVCAR-4
[43] = test system: HCC 2998
[44] = test system: NCI-H522
[45] = test system: M14
[46] = test system: OVCAR-5
[47] = test system: RPMI-8226
[48] = test system: CAKI-1
[49] = test system: SK-MEL-2
[50] = test system: HOP-62
[51] = test system: 786-0
[52] = test system: LOX IMVI
[53] = test system: Malme-3M
[54] = test system: HCT-116
[55] = test system: SNB-75
[56] = test system: MDA-N
[57] = test system: SN12C
[58] = test system: MCF7
[59] = test system: SF-539

Cc1ccc([S+]([O-])C[C@@]2(C(F)F)NC(=O)NC2=O)cc1 (some centres not stated)
GI50 [1]: > 100 µM (inactive) | GI50 [2]: > 100 µM (inactive) | GI50 [3]: > 100 µM (inactive) | GI50 [4]: > 100 µM (inactive) | GI50 [5]: > 100 µM (inactive) | GI50 [6]: > 100 µM (inactive) | GI50 [7]: > 100 µM (inactive) | GI50 [8]: > 100 µM (inactive) | GI50 [9]: > 100 µM (inactive) | GI50 [10]: > 100 µM (inactive) | GI50 [11]: > 100 µM (inactive) | GI50 [12]: > 100 µM (inactive) | GI50 [13]: > 100 µM (inactive) | GI50 [14]: > 100 µM (inactive) | GI50 [15]: > 100 µM (inactive) | GI50 [16]: > 100 µM (inactive) | GI50 [17]: > 100 µM (inactive) | GI50 [18]: > 100 µM (inactive) | GI50 [19]: > 100 µM (inactive) | GI50 [20]: > 100 µM (inactive) | GI50 [21]: > 100 µM (inactive) | GI50 [22]: > 100 µM (inactive) | GI50 [23]: > 100 µM (inactive) | GI50 [24]: > 100 µM (inactive) | GI50 [25]: > 100 µM (inactive) | GI50 [26]: > 100 µM (inactive) | GI50 [27]: > 100 µM (inactive) | GI50 [28]: > 100 µM (inactive) | GI50 [29]: > 100 µM (inactive) | GI50 [30]: > 100 µM (inactive) | GI50 [31]: > 100 µM (inactive) | GI50 [32]: > 100 µM (inactive) | GI50 [33]: > 100 µM | GI50 [34]: > 100 µM (inactive) | GI50 [35]: > 100 µM (inactive) | GI50 [36]: > 100 µM (inactive) | GI50 [37]: > 100 µM (inactive) | GI50 [38]: > 100 µM (inactive) | GI50 [39]: > 100 µM (inactive) | GI50 [40]: > 100 µM (inactive) | GI50 [41]: > 100 µM (inactive) | GI50 [42]: > 100 µM (inactive) | GI50 [43]: > 100 µM (inactive) | GI50 [44]: > 100 µM (inactive) | GI50 [45]: > 100 µM (inactive) | GI50 [46]: > 100 µM (inactive) | GI50 [47]: > 100 µM (inactive) | GI50 [48]: > 100 µM (inactive) | GI50 [49]: > 100 µM (inactive) | GI50 [50]: > 100 µM (inactive) | GI50 [51]: > 100 µM (inactive) | GI50 [52]: > 100 µM (inactive) | GI50 [53]: > 100 µM (inactive) | GI50 [54]: > 100 µM (inactive) | GI50 [55]: > 100 µM (inactive)

CCN1CCN(c2nc3ccccc3nc2C(=O)c2ccc(OC)c(OC)c2)CC1
GI50 [1]: 13.5 µM (inactive) | GI50 [2]: 19 µM (inactive) | GI50 [3]: 32.7 µM (inactive) | GI50 [4]: 19.3 µM (inactive) | GI50 [5]: 21.9 µM (inactive) | GI50 [6]: 12.2 µM (inactive) | GI50 [7]: 6.81 µM (inactive) | GI50 [8]: 13.6 µM (inactive) | GI50 [9]: 27.7 µM (inactive) | GI50 [10]: 12.6 µM (inactive) | GI50 [11]: 22.2 µM (inactive) | GI50 [12]: 24.3 µM (inactive) | GI50 [13]: 14.8 µM (inactive) | GI50 [15]: 12.6 µM (inactive) | GI50 [56]: 25.4 µM (inactive) | GI50 [16]: 12.6 µM (inactive) | GI50 [18]: 12.1 µM (inactive) | GI50 [19]: 5.16 µM (inactive) | GI50 [20]: > 100 µM (inactive) | GI50 [21]: 24 µM (inactive) | GI50 [22]: 1.6 µM (inactive) | GI50 [23]: 10 µM (inactive) | GI50 [24]: 22.3 µM (inactive) | GI50 [25]: 22.4 µM (inactive) | GI50 [26]: 21.2 µM (inactive) | GI50 [27]: 11.9 µM (inactive) | GI50 [28]: 25.4 µM (inactive) | GI50 [29]: 1.5 µM (inactive) | GI50 [30]: > 100 µM (inactive) | GI50 [31]: 16.6 µM (inactive) | GI50 [32]: 7.06 µM (inactive) | GI50 [33]: 13.7 µM | GI50 [34]: 15.7 µM (inactive) | GI50 [35]: 7.48 µM (inactive) | GI50 [36]: 44.1 µM (inactive) | GI50 [37]: 15.4 µM (inactive) | GI50 [57]: 42.1 µM (inactive) | GI50 [38]: 14.8 µM (inactive) | GI50 [39]: 13.7 µM (inactive) | GI50 [40]: 30.5 µM (inactive) | GI50 [41]: 9.91 µM (inactive) | GI50 [42]: 10 µM (inactive) | GI50 [43]: 2.3 µM (inactive) | GI50 [44]: 12 µM (inactive) | GI50 [45]: 16.2 µM (inactive) | GI50 [46]: 41.7 µM (inactive) | GI50 [47]: 10.1 µM (inactive) | GI50 [58]: 18.2 µM (inactive) | GI50 [48]: 82.4 µM (inactive) | GI50 [49]: 47.8 µM (inactive) | GI50 [59]: 1.73 µM (inactive) | GI50 [50]: 21.4 µM (inactive) | GI50 [51]: 10.7 µM (inactive) | GI50 [52]: 12.7 µM (inactive) | GI50 [53]: 16.4 µM (inactive) | GI50 [54]: 5.31 µM (inactive) | GI50 [55]: 12.9 µM (inactive)

— ChEMBL document CHEMBL1201862, “PubChem BioAssay data set” (2004)
